Type in all cases: cell-based
Test [1] deals with Lactobacillus plantarum strain PN0512. As to the kind of experiment: Growth of Lactobacillus plantarum in the presence of isobutanol and oleyl alcohol (shake flask). As to the method: The glucose consumption rate and the growth rate of Lactobacillus plantarum strain PN0512 were measured in shake flask cultures containing a high concentration of isobutanol in the presence of oleyl alcohol (Example 4) and the absence of oleyl alcohol (Example 5, Comparative).
Three seed shake flasks containing 50 mL of de Man-Rogosa-Sharpe (MRS) medium were inoculated with 200, 500, and 1000 μL, respectively, of Lactobacillus plantarum strain PN0512 inoculum (ATCC: PTA-7727, biological deposit made Jul. 12, 2006 for U.S. patent application Ser. No. 11/761,497). The flasks were incubated overnight at 30° C. with shaking at 250 rpm until the OD600 was between 2 and 5. A 1-L flask containing 600 mL of MRS medium was inoculated from one of the above seed flasks having an OD600=3 to an initial OD600=0.1 and cultivated at 30° C. with shaking at 180 rpm. After 4 to 5 hours of cultivation, the OD600 was between 0.5 and 1.0. Samples were withdrawn from each culture and the OD600 and glucose concentration were measured as described above.
To a 125 mL flask was added 100 mL of the culture from the above mentioned 1-L flask (Example 3, Comparative). To another 125 mL flask was added 75 mL of the culture and 25 mL of oleyl alcohol (i.e., 25 vol %) (Example 2). The flasks were incubated at 30° C. with shaking at 100 rpm. Samples were withdrawn for OD600 and glucose measurement. When the OD600 reached about 1.5, isobutanol was added to both flasks to a final concentration of 30 g/L of the aqueous phase. A third flask containing 75 mL of the culture and 25 vol % of oleyl alcohol, but no added isobutanol, served as a positive control. Samples were withdrawn from all flasks at various times for the determination of OD600 and glucose concentration.

The test system of test [2] is Saccharomyces cerevisiae BY4741. Briefly: Growth of Saccharomyces cerevisiae in the presence of isobutanol and oleyl alcohol (shake flask). How it is done:
The glucose consumption rate and the growth rate of wild-type Saccharomyces cerevisiae BY4741 strain were measured in shake flask cultures containing a high concentration of isobutanol in the presence of oleyl alcohol (Example 2) and the absence of oleyl alcohol (Example 3, Comparative).
Three seed shake flasks containing 600 mL of YPD medium were inoculated with 100, 300, and 1000 μL of Saccharomyces cerevisiae BY4741 inoculum, respectively. The flasks were incubated overnight at 30° C. with shaking at 250 rpm until the OD600 reached about 0.1. Samples were withdrawn from each culture and the OD600 and glucose concentration were measured as described above.
To a 125 mL flask was added 100 mL of the culture which was derived from the 300 μL inoculum (Example 3, Comparative). To another 125 mL flask was added 75 mL of the culture and 25 mL of oleyl alcohol (i.e., 25 vol %) (Example 2). The flasks were incubated at 30° C. with shaking at 100 rpm. Samples were withdrawn for OD600 and glucose measurement. When the OD600 reached about 0.4, isobutanol was added to both flasks to a final concentration of 30 g/L of the aqueous phase. A third flask containing 75 mL of the culture and 25 vol % of oleyl alcohol, but no added isobutanol, served as a positive control. Samples were withdrawn from all flasks at various times for the determination of OD600 and glucose concentration.

Test [3] shares this test system. Briefly: Biocompatibility of solvents, shake flask studies (OD600 and glucose). To be noted: for Biocompatibility of the solvent (growth and glucose utilization versus control without solvent): S. cerevisiae BY4741, 25 mL solvent per 100 mL; for Glucose / OD600: 75 mL seed culture + 25 mL solvent, 30° C. How it is done: The biocompatibility of each solvent was determined using shake flask studies with Saccharomyces cerevisiae BY4741 obtained from ATCC. Seed shake flasks containing 700 mL of yeast extract/peptone/dextrose (YPD) medium were inoculated with 200 μL of S. cerevisiae BY4741 inoculum and incubated overnight at 30° C. with shaking at 250 rpm until the OD600 reached about 0.5. Samples were withdrawn from the culture for measurement of OD600 using a spectrophotometer and glucose concentration using HPLC.
The resulting seed culture was divided into eight 125 mL flasks as follows. Into one flask, which served as a control, 100 mL of the seed culture was added. Into the remaining seven flasks, 75 mL of the seed culture and 25 mL of the solvent to be tested was added.

Setting [4] is: Time 3 h after isobutanol addition.
[5] abbreviates: Time 4 h after isobutanol addition.
Setting [6] is: Time 5 h after isobutanol addition.
[7] abbreviates: Time 14 h after isobutanol addition.
The mark [8] stands for this setting: isobutanol 30 g/L in the absence of oleyl alcohol.
The mark [9] stands for this setting: 25 vol % oleyl alcohol, isobutanol 30 g/L.

We go through eleven compounds from patent publication US8828695B2, “Method for producing butanol using two-phase extractive fermentation” (Butamax Advanced Biofuels LLC, priority 2008, dated 2014).

For the compound `CCCCCCCC/C=C\CCCCCCCCO` [Control, oleyl alcohol], the Glucose was 12.9 g/L in test [1] (Time 0 h (isobutanol addition)); 7.4 g/L in test [1] (setting [4]); 4.5 g/L in test [1] (setting [5]); 1.9 g/L in test [1] (setting [6]); 0 g/L in test [1] (setting [7]); 19.7 g/L in test [2] (Time 0 h (isobutanol addition)). The Glucose in test [2] (setting [4]) was determined as 16.0 g/L; in test [2] (setting [5]) it was 12.9 g/L; in test [2] (setting [6]), 9.2 g/L; in test [2] (setting [7]), 0.3 g/L. Further, the OD600 in test [1] (Time 0 h (isobutanol addition)) is 5.6; in test [1] (setting [4]), 8.9; in test [1] (setting [5]) it was 10.4; in test [1] (setting [6]) it was 14.1; in test [1] (setting [7]) it was 8.8; in test [2] (Time 0 h (isobutanol addition)), 0.4. Also, the OD600 is listed as 0.6 in test [2] (setting [4]), 1.7 in test [2] (setting [5]), 2.5 in test [2] (setting [6]) and 3.3 in test [2] (setting [7]).
As for `CC(C)CO` [Example 3, isobutanol], the Glucose in test [2] (Time 0 h (isobutanol addition)) was 18.9 g/L; in test [2] (setting [4]), 17.5 g/L; in test [2] (setting [5]) it was 17.7 g/L; in test [2] (setting [6]) it was 17.4 g/L; in test [2] (setting [7]), 17.4 g/L. The OD600 in test [2] (Time 0 h (isobutanol addition)) is listed as 0.4; in test [2] (setting [4]), 0.6; in test [2] (setting [5]) it was 0.7; in test [2] (setting [6]) it was 0.6; in test [2] (setting [7]), 0.6.
On to `CC(C)CO` [Example 5, isobutanol], for which the Glucose is given as 12.7 g/L in test [1] (Time 0 h (isobutanol addition)); 11.7 g/L in test [1] (setting [4]); 11.7 g/L in test [1] (setting [5]); 11.7 g/L in test [1] (setting [6]); 11.6 g/L in test [1] (setting [7]). In addition, the OD600 turned out to be 5.7 in test [1] (Time 0 h (isobutanol addition)); 6.8 in test [1] (setting [4]); 6.9 in test [1] (setting [5]); 7.2 in test [1] (setting [6]); 5.3 in test [1] (setting [7]).
Consider `CCCCCCCCCCO` [Solvent 1-decanol, 1-decanol], for which, in test [3], the “Biocompatibility of the solvent (growth and glucose utilization versus control without solvent)” value was “inhibited growth and glucose utilization”. Also, the Glucose in test [3] (t = 0) was found to be 17.5 g/L; in test [3] (t = 2 h), 16.6 g/L; in test [3] (t = 4 h), 17.0 g/L; in test [3] (t = 6 h) it was 17.8 g/L; in test [3] (t = 24 h), 17.6 g/L. Further, the OD600 in test [3] (t = 0) worked out at 0.5; in test [3] (t = 4) it was 0.7; in test [3] (t = 2 h) it was 0.5; in test [3] (t = 6 h), 0.6; in test [3] (t = 24 h), 0.8.
For `CCCCCCCCCCCCO` [Solvent 1-dodecanol, 1-dodecanol], the “Biocompatibility of the solvent (growth and glucose utilization versus control without solvent)” value in test [3] is “biocompatible”. In addition, the Glucose in test [3] (t = 0) turned out to be 17.5 g/L; in test [3] (t = 2 h) it was 15.4 g/L; in test [3] (t = 4 h) it was 11.6 g/L; in test [3] (t = 6 h), 3.9 g/L; in test [3] (t = 24 h) it was 0.0 g/L. Moreover, the OD600 in test [3] (t = 0) is listed as 0.5; in test [3] (t = 4) it was 1.6; in test [3] (t = 2 h), 0.9; in test [3] (t = 6 h), 2.8; in test [3] (t = 24 h), 4.2.
On to `CCCCCCCCC=O` [Solvent 1-nonanal, 1-nonanal], for which, in test [3], the “Biocompatibility of the solvent (growth and glucose utilization versus control without solvent)” value was “inhibited growth and glucose utilization”. Moreover, the Glucose in test [3] (t = 0) came to 17.5 g/L; in test [3] (t = 2 h), 16.6 g/L; in test [3] (t = 4 h) it was 17.0 g/L; in test [3] (t = 6 h), 17.8 g/L; in test [3] (t = 24 h) it was 17.6 g/L. Also, the OD600 in test [3] (t = 0) is recorded as 0.5; in test [3] (t = 4), 0.7; in test [3] (t = 2 h) it was 0.7; in test [3] (t = 6 h) it was 0.8; in test [3] (t = 24 h), 1.8.
`CC(C)CO` [isobutanol]: the “Effect on glucose utilization and biomass growth” value in test [1] (setting [8]) was “almost completely inhibited glucose utilization and biomass growth”; in test [2] (setting [8]), “almost completely inhibited glucose utilization and biomass growth”.
Regarding `CCCCCCCCCO` [nonanol, 1-nonanol], the “Biocompatibility of the solvent (growth and glucose utilization versus control without solvent)” value in test [3] is “inhibited growth and glucose utilization”. The Glucose in test [3] (t = 0) is listed as 17.5 g/L; in test [3] (t = 2 h) it was 17.0 g/L; in test [3] (t = 4 h), 16.9 g/L; in test [3] (t = 6 h), 18.1 g/L; in test [3] (t = 24 h), 17.8 g/L. Besides, the OD600 in test [3] (t = 0) was 0.5; in test [3] (t = 4), 0.7; in test [3] (t = 2 h), 0.5; in test [3] (t = 6 h) it was 0.6; in test [3] (t = 24 h), 0.7.
Consider `CCCCCCCC(=O)O` [octanoic acid], for which, in test [3], the “Biocompatibility of the solvent (growth and glucose utilization versus control without solvent)” value was “inhibited growth and glucose utilization”. The Glucose in test [3] (t = 0) worked out at 17.5 g/L; in test [3] (t = 2 h) it was 17.1 g/L; in test [3] (t = 4 h) it was 17.6 g/L; in test [3] (t = 6 h) it was 19.2 g/L; in test [3] (t = 24 h), 18.5 g/L. Besides, the OD600 in test [3] (t = 0) was 0.5; in test [3] (t = 4) it was 0.8; in test [3] (t = 2 h), 0.9; in test [3] (t = 6 h) it was 0.7; in test [3] (t = 24 h), 1.0.
With `CCCCCCCC/C=C\CCCCCCCC(=O)O` [oleic acid], in test [3], the “Biocompatibility of the solvent (growth and glucose utilization versus control without solvent)” value is listed as “biocompatible”. The Glucose in test [3] (t = 0) stood at 17.5 g/L; in test [3] (t = 2 h), 19.0 g/L; in test [3] (t = 6 h) it was 2.2 g/L; in test [3] (t = 24 h), 0.0 g/L. Moreover, the OD600 in test [3] (t = 0) stood at 0.5; in test [3] (t = 4) it was 1.7; in test [3] (t = 2 h) it was 0.8; in test [3] (t = 6 h), 2.8; in test [3] (t = 24 h), 4.4.
With `CCCCCCCC/C=C\CCCCCCCCO` [oleyl alcohol], the “Biocompatibility of the solvent (growth and glucose utilization versus control without solvent)” value in test [3] is recorded as “biocompatible”. Also, the Glucose in test [3] (t = 0) worked out at 17.5 g/L; in test [3] (t = 2 h), 15.3 g/L; in test [3] (t = 4 h), 10.4 g/L; in test [3] (t = 6 h) it was 3.4 g/L; in test [3] (t = 24 h) it was 0.0 g/L. The OD600 in test [3] (t = 0) came out at 0.5; in test [3] (t = 4) it was 2.0; in test [3] (t = 2 h) it was 1.0; in test [3] (t = 6 h), 2.4; in test [3] (t = 24 h), 3.5. Further, the “Effect of oleyl alcohol on isobutanol toxicity” value in test [1] (setting [9]) and in test [2] (setting [9]) was “mitigates the toxicity of isobutanol” throughout.
